Data published in PMC11969009 (Nature Communications, 2025).

Test system: SARS-CoV-2 P2 strain
Set-up: species or system C57BL/6 (WT) mice
Conditions: mouse, in vivo

CC(C)c1nc(CN(C)C(=O)N[C@H](C(=O)N[C@@H](Cc2ccccc2)C[C@H](O)[C@H](Cc2ccccc2)NC(=O)OCc2cncs2)C(C)C)cs1 [ritonavir, reference compound]
antiviral activity (lung viral burden), mild model: no antiviral activity
